{
  "source": "patent US20160237450A1",
  "about": "“METHOD FOR ENHANCING DROUGHT TOLERANCE IN PLANTS” (Plant Response Biotech S.L., priority 2015, published 2016)",
  "type_in_all_cases": "in vivo",
  "key": {"[1]": {"tested_on": "tomato plants ('Rio Grande')", "test": "Tomato fruit production under limited water irrigation", "settings": "30% water irrigation; 1 g/L spray every 4 weeks", "text": "TMAO di-hydrate applied exogenously which increases the endogenous content of TMAO as if the plants were overexpressing an FMO protein at least 4 times increases plant production in tomato under limited water irrigation. ‘Rio Grande’ tomato seeds were sown, grown and treated as described. Spray treatments with 1 g/L TMAO di-hydrate increased both fruit size and fruit production."}, "[2]": {"tested_on": "cucumber plants ('Marketer')", "test": "Cucumber plant survival under extreme drought", "protocol": "For each drought or limited water experiment 480 seeds (of either pepper, barley, tomato, cucumber or corn) were sown, producing 384 plants in 512 cm^3 pots (4 plants per pot). Plants were grown under chamber conditions at 21° C. for 3 weeks. Then, the plants were moved to a greenhouse, where average temperature was 25° C. to 28° C. Spray and irrigation treatments as described herein were done when the plants had two extended leaves and the next pair of leaves were coming up.\nTreatments: Twelve pots (containing 48 plants) were irrigated with 40 ml of either: water, 0.1 g/L TMAO di-hydrate solution, 1.0 g/L TMAO di-hydrate solution, or 5.5 g/L TMAO di-hydrate solution. Another set of 12 pots containing 48 plants were sprayed with 40 ml of either water (3.3 ml in average per pot), a solution containing 0.1 g/L TMAO di-hydrate solution, 1.0 g/L TMAO di-hydrate, or 5 g/L, or 10 g/L TMAO di-hydrate. Further sets of 12 pots containing 48 plants were both sprayed with each initial solution TMAO di-hydrate solution and further irrigated with the same TMAO di-hydrate solutions used in the control water sprayed plants. All pots were also watered with 40 ml of water. The sprayed plants were watered with the same volume of water as the “irrigated plants). The pots were located on plastic glass to maintain constant moisture and to avoid liquid spillage during watering. Trays containing the pots were located on greenhouse tables. The distribution of the trays on the table and the position on the pots in the tray was changed every week to avoid position effects.\nAfter the treatments described above, the plants were not watered until the pots completely lost their moisture, taking about 4 to 8 days depending on the season, at which point the plants were extremely wilted for the extreme drought experiments. The plants were then watered once with solutions containing the different amounts of TMAO di-hydrate (0.1 g/L, 1.0 g/L, 5 g/L, or 10 g/L) or just water, after which the plants were left to lose their moisture completely again for three consecutive cycles of watering after wilting. For the “extreme drought” experiments plants were allowed to wilt severely before watering and then the plant survival rate was recorded and analyzed.\nTMAO di-hydrate applied exogenously which increases the endogenous content of TMAO as if the plants were overexpressing an FMO protein at least 4 times increases plant survival in cucumber under extreme drought conditions. ‘Marketer’ cucumber seeds were sown, grown and treated as described above."}, "[3]": {"tested_on": "broccoli plants ('Parthenon')", "test": "Broccoli inflorescence production under limited water", "settings": "30% water; for % Control (inflorescence weight): versus untreated 30% water", "text": "TMAO di-hydrate applied exogenously which increases the endogenous content of TMAO as if the plants were overexpressing an FMO protein at least 4 times increases plant production in broccoli under limited water irrigation. ‘Parthenon’ broccoli seeds were sown, grown and treated as described above. Spray and irrigation treatments with 1 g/L TMAO di-hydrate increased plant production, as measured by the average weight of the crown plus stems in grams."}, "corn plants ('FAO700')": {"tested_on": "corn plants ('FAO700')", "test": "Corn grains per cob under limited water", "settings": "30% water", "protocol": "(§1) In order to determine the drought or drought stress tolerance after seed treatments with TMAO di-hydrate and germination in the presence of TMAO di-hydrate, barley “Hispanic” seeds, corn “FAO700” seeds, and “Sambro” sunflower seeds were surface sterilized for 3 minutes in ethanol 70%, then rinsed twice and finally included in a pre-treatment solution of 1 g/L TMAO di-hydrate solution (or just water) under shaking for 3 hours at a dose of 1 litre per Kg of seeds. Then, the seeds were sown in randomized plots of 10 sqm in a surface of 2.000 sqm. Chlorophyll content was measured 1 month before harvest. In corn irrigation was applied in half of the plots while the other half only received an initial establishment watering. The barley plots received 200 l of rain per m^2 through the growing season. Some of the plots received a second spray treatment with 1 g/liter of TMAO. […] At least 3 independent plants were treated per experiment.\nTMAO di-hydrate applied exogenously which increases the endogenous content of TMAO as if the plants were overexpressing an FMO protein at least 4 times increases plant production in corn under limited water irrigation. ‘FAO700’ corn seeds were sown, grown and treated as described above. Spray treatments with 1 g/L TMAO di-hydrate increased plant grain production."}, "[4]": {"tested_on": "barley plants ('Hispanic')", "test": "Barley field seed production without irrigation", "settings": "no external irrigation", "protocol": "as §1\nTMAO di-hydrate applied exogenously which increases the endogenous content of TMAO as if the plants were overexpressing an FMO protein at least 4 times increases seed production in barley grown in the field without irrigation. ‘Hispanic” barley seeds were sown, grown and treated as described. Both, seed treatments (each Kg of seed was soaked in 1 liter of a 1 g/1 L TMAO di-hydrate solution, although smaller volumes of this solution are also effective) and a combination of seed and spray treatments with 1 g/L TMAO di-hydrate increased plant grain production. The field experienced 200 l/m^2 of rain water in total through the season."}, "[5]": {"settings": "1 g TMAO/1 Kg seed + 1 g/L spray"}},
  "data": [
    {"smiles": "C[N+](C)(C)[O-].O.O", "note": "[TMAO di-hydrate, trimethylamine N-oxide di-hydrate]", "values": [
      {"measurement": "AVERAGE WEIGHT (grams/fruit)", "setting": "[1]", "result": "76.73 ± 17.67", "unit": "grams/fruit"},
      {"measurement": "increase of fruit production over untreated plants with 30% irrigation", "setting": "[1]", "result": 45, "unit": "%"},
      {"measurement": "SURVIVAL RATE (%)", "setting": "[2]; irrigation 0.1 g/L, initial spray 0.1 g/L", "result": "82.9 ± 7.4", "unit": "%"},
      {"measurement": "SURVIVAL RATE (%)", "setting": "[2]; irrigation 0.1 g/L, initial spray 1 g/L", "result": "91.6 ± 7.4", "unit": "%"},
      {"measurement": "SURVIVAL RATE (%)", "setting": "[2]; irrigation 0.1 g/L, initial spray 5 g/L", "result": "95.8 ± 7.4", "unit": "%"},
      {"measurement": "SURVIVAL RATE (%)", "setting": "[2]; irrigation 0.1 g/L, initial spray water", "result": "45.8 ± 7.4", "unit": "%"},
      {"measurement": "SURVIVAL RATE (%)", "setting": "[2]; irrigation 1 g/L, initial spray 0.1 g/L", "result": "91.6 ± 5.9", "unit": "%"},
      {"measurement": "SURVIVAL RATE (%)", "setting": "[2]; irrigation 1 g/L, initial spray 1 g/L", "result": "91.6 ± 5.9", "unit": "%"},
      {"measurement": "SURVIVAL RATE (%)", "setting": "[2]; irrigation 1 g/L, initial spray 5 g/L", "result": "91.6 ± 5.9", "unit": "%"},
      {"measurement": "SURVIVAL RATE (%)", "setting": "[2]; irrigation 1 g/L, initial spray water", "result": "87.5 ± 5.9", "unit": "%"},
      {"measurement": "SURVIVAL RATE (%)", "setting": "[2]; irrigation 5 g/L, initial spray 0.1 g/L", "result": "75.0 ± 7.2", "unit": "%"},
      {"measurement": "SURVIVAL RATE (%)", "setting": "[2]; irrigation 5 g/L, initial spray 1 g/L", "result": "95.8 ± 7.2", "unit": "%"},
      {"measurement": "SURVIVAL RATE (%)", "setting": "[2]; irrigation 5 g/L, initial spray 5 g/L", "result": "95.8 ± 7.2", "unit": "%"},
      {"measurement": "SURVIVAL RATE (%)", "setting": "[2]; irrigation 5 g/L, initial spray water", "result": "66.6 ± 7.2", "unit": "%"},
      {"measurement": "SURVIVAL RATE (%)", "setting": "[2]; irrigation all regimes, initial spray 0.1 g/L", "result": "80.1 ± 3.4", "unit": "%"},
      {"measurement": "SURVIVAL RATE (%)", "setting": "[2]; irrigation all regimes, initial spray 1 g/L", "result": "92.7 ± 3.4", "unit": "%"},
      {"measurement": "SURVIVAL RATE (%)", "setting": "[2]; irrigation all regimes, initial spray 5 g/L", "result": "94.7 ± 3.4", "unit": "%"},
      {"measurement": "SURVIVAL RATE (%)", "setting": "[2]; irrigation water, initial spray 0.1 g/L", "result": "83.3 ± 7.2", "unit": "%"},
      {"measurement": "SURVIVAL RATE (%)", "setting": "[2]; irrigation water, initial spray 1 g/L", "result": "91.6 ± 7.2", "unit": "%"},
      {"measurement": "SURVIVAL RATE (%)", "setting": "[2]; irrigation water, initial spray 5 g/L", "result": "95.8 ± 7.2", "unit": "%"},
      {"measurement": "AVERAGE WEIGHT (grams/inflorescence)", "setting": "[3]; 1 g/L irrigation", "result": "85.2 ± 4.6", "unit": "grams/inflorescence"},
      {"measurement": "% Control (inflorescence weight)", "setting": "[3]; 1 g/L irrigation", "result": 106, "unit": "%"},
      {"measurement": "AVERAGE WEIGHT (grams/inflorescence)", "setting": "[3]; 1 g/L spray", "result": "87.3 ± 6.7", "unit": "grams/inflorescence"},
      {"measurement": "% Control (inflorescence weight)", "setting": "[3]; 1 g/L spray", "result": 108, "unit": "%"},
      {"measurement": "AVERAGE NUMBER OF GRAINS PER COB", "setting": "corn plants ('FAO700'); 1 g/L seed treatment", "result": "542.89 ± 41.22"},
      {"measurement": "AVERAGE NUMBER OF GRAINS PER COB", "setting": "corn plants ('FAO700'); 1 g/L spray", "result": "511.34 ± 19.70"},
      {"measurement": "increase in total number of grains per corn cob compared to 100% water irrigation", "setting": "corn plants ('FAO700'); 1 g/L, row 4", "result": 2, "unit": "%"},
      {"measurement": "% Control (seed production)", "setting": "[4]; 1 g TMAO/1 Kg seed", "result": 18, "unit": "%"},
      {"measurement": "Average number of Grams per square meter (seed production)", "setting": "[4]; 1 g TMAO/1 Kg seed", "result": "225.98 ± 11.89", "unit": "Grams per square meter"},
      {"measurement": "% Control (seed production)", "setting": "[4]; [5]", "result": 35, "unit": "%"},
      {"measurement": "Average number of Grams per square meter (seed production)", "setting": "[4]; [5]", "result": "256.36 ± 12.78", "unit": "Grams per square meter"}
    ]}
  ]
}
